Read-outs that look alike come from different tables or passages of the source.
How the values were obtained:
[1] = human, in vivo; cited from earlier work
[2] = tested on: U87; assay: Glioma cell viability (MTT) under XRT-TMZ with or without CRAd-S-pk7; type: cell-based, human; conditions: for IC50: Homo sapiens, U-87 MG
Description: FIGS. 42A and 42B illustrate antitumor effects of CRAd-Survivin-pk7 (CRAd-S-pk7)-loaded NSCs and their combination with XRT-TMZ against glioma cell lines in vitro according to one embodiment. (FIG. 42A): Cytotoxicity of patient-derived GBM43 tumor cells 96 hours after coculture with CRAd-S-pk7-loaded NSCs at the NSC to GBM43 cell ratios of 1:0, 1:2, 1:5, 1:10, or 1:50. Top: Representative light microscope pictures of GBM43 viability. Bottom: Mean luciferase intensity values represented as the percentages of viable glioma cells compared with control. (FIG. 42B): U251 and U87 glioma cell viability measured by 3-(4,5-dimethylthiazol-2-yl)-2,5-diphenyltetrazolium bromide at 96 hours after treatment. The addition of CRAd-S-pk7 (50 infectious units) to conventional XRT-TMZ therapy reduced the percentage of glioma cell viability in both tested cell lines. […] Abbreviations: NSC, neural stem cell; OV, oncolytic virus; TMZ, temozolomide; XRT, radiation therapy.
FIGS. 44A and 44B show the optimization of combination therapy in vitro according to one embodiment. (FIG. 44A): Cytotoxicity of U251 and U87 glioma cell lines and GBM39 patient-derived cell line treated with Rx-OV or OV-Rx. Left: The percentage of viability of glioma cells measured by 3-(4,5-dimethylthiazol-2-yl)-2,5-diphenyltetrazolium bromide 96 hours after treatment. Right: Representative light microscope pictures of U87 glioma cell viability (magnification, ×10). (FIG. 44B): Percentage of apoptotic GBM43 cells at 48 hours after treatment with Rx-OV or OV-Rx treatment protocols as measured by the expression of active caspase-3-positive tumor cells by FACS (bottom). Top: Representative FACS plots. *, p<0.05; **, p<0.01; ***, p<0.001. Abbreviations: DMSO, dimethyl sulfoxide; OV-Rx, ionizing radiation-temozolomide therapy 24 hours after oncolytic virus; PE, phycoerythrin; Rx-OV, oncolytic virus 24 hours after ionizing radiation-temozolomide therapy.
For all studies, the cells and mice received XRT in accordance with the University of Chicago's radiation safety guidelines and protocols. All cells received a single dose of 2 Gy XRT. For animal studies, 10 Gy fractioned dose radiotherapy (2 Gy for 5 consecutive days) was used. The animals were irradiated with a lead cover shielding their entire body, with only their heads exposed. […] For in vivo studies, the mice received 2.5, 5, 10, or 30 mg/kg TMZ via intraperitoneal injection.
A green fluorescent protein (GFP) expressing HB1.F3-CD cell line was generated as described elsewhere (Ahmed et al. 2011a). GBM43-Fluc cells were plated in 12-well plates and cocultured with HB1.F3-CDGFP cells loaded with CRAd-S-pk7 in the following NSC to glioma cell ratios: 1:0, 1:2, 1:5, 1:10, and 1:50. After 96 hours, the cells were collected, lysed with reporter lysis buffer (Promega, Madison, Wis., http://www.promega.com), and added to luciferase assay reagent (Promega) according to the manufacturer's protocol. Following lysate preparation, the mean fluorescence intensity (MFI) was estimated for each group of cocultured cells using the GloMax 20/20 Luminometer (Promega). The mean luciferase intensity values were represented as the percentage of cells viable compared with mock cells. U251, U87, and GBM39 cell viability was determined using 3-(4,5-dimethylthiazol-2-yl)-2,5-diphenyltetrazolium bromide (MTT) cell proliferation kit (Roche Diagnostics, Mannheim, Germany, http://www.roche-applied-science.com). The viability was subsequently determined by MTT as described by the manufacturer's protocol. Cell viability was expressed as the percentage of cells alive compared with the dimethyl sulfoxide-treated control.
Next, it was tested whether CRAd-S-pk7 could enhance the therapeutic efficacy of conventional XRT-TMZ. U251 or U87 glioma cells were treated with conventional therapy consisting of 2 Gy XRT and varying concentrations of TMZ (0-1×10^3 µM) or conventional treatment plus 50 IU of CRAd-S-pk7, and cell viability was measured by MTT at 96 hours. […]

Cn1nnc2c(C(N)=O)ncn2c1=O [TMZ, temozolomide]
intratumoral concentration (likely range) [1]: 5 to 50 µM | peak concentration in patient's blood [1]: 50 µmol/L | peak concentration in the cerebral spinal fluid [1]: 5 µmol/L | IC50 ([2]; 2 Gy XRT plus 50 IU of CRAd-S-pk7, MTT 96 hours, read-out: IC50 values for TMZ): 10 µM | IC50 ([2]; treated with XRT (2 Gy) simultaneously, read-out: IC50): 25 µM | decrease of TMZ IC50 when OV was added ([2]; XRT-TMZ): 15 µM
